Laboratory results published in publication PMC7180842, “Efficacy of Topical Treatment with (−)-Epigallocatechin Gallate, A Green Tea Catechin, in Mice with Cutaneous Leishmaniasis” (Molecules, 2020).
≈ marks a conversion by molar mass, not a printed value.

Legend:
[1] = system: L. (L.) amazonensis; assay: In vivo cutaneous leishmaniasis model, infected ear dermis of BALB/c mice; conditions: 18 days; for Parasite burden inhibition: once a day, six times a week, from week six postinfection, vs control group; for Lesion size: week 10, vs control group, p < 0.05
Experimental: Female BALB/c mice of six weeks old (weight, 20 to 25 g) were randomly separated into three groups of five animals and were inoculated by intradermal via in their right ear with 5 × 10^3 (20 µL) infective promastigotes of L. (L.) amazonensis (late log phase of growth). The animals were housed in groups of five in metal cages under a controlled environmental condition (12:12 h light/dark cycle and 23 °C room temperature) with food and water ad libitum.
At week six postinfection, mice received the treatments as follow: group 1, treated with EGCG in USP hydrophilic ointment (15%), group 2, treated with 120 mg Sb^v/kg/d of Gl administered by intraperitoneal route, and group 3, control mice (without treatment). EGCG was uniformly mixed in USP hydrophilic cream (Yoshida Pharmaceutical Co., Saitama, Japan) (15% w/w) and was topically applied (20 mg/lesion). EGCG ointment was prepared daily. The treatments were given during 18 days, once a day, six times a week, until the end of the treatments (9th week). The efficacy of treatments was determined by measuring the lesions’ sizes (mm^2) with a digital caliper weekly (150 mm; Digimess) and by quantifying the parasite burden with the limit dilution assay as was described previously.
(§1) The GraphPad Prism 5.0 software (GraphPad Software Inc., San Diego, CA, USA) was employed to carry out calculations of the IC50 and CC50 values by a nonlinear regression. Multiple comparisons of lesions’ sizes between groups were made with a one-way analysis of variance (ANOVA) followed by Tukey test. The statistical analysis of the parasite burden data obtained by the limiting dilution assay was done using ELIDA software, which analyses data through the Poisson distribution and by the X^2 test. p < 0.05 was considered significant. The data are representative of two separate experiments in vivo.

[2] = system: promastigotes of L. (V.) braziliensis; set-up: method as in earlier work; conditions: cited from earlier work
[3] = system: promastigotes of L. (L.) amazonensis; set-up: method as in earlier work; conditions: cited from earlier work
[4] = Macrophage cytotoxicity screening (MTT assay); format: cell-based; conditions: human, THP1 cells differentiated to macrophages
Experimental: The cytotoxicity of EGCG, EGC, GCG and GC was evaluated in a human monocytic cell line derived from an acute monocytic leukemia patient (THP1). The cells (3 x 10^4/150 µL) were first differentiated to macrophages with 10 ng/mL of phorbol myristate acetate for 24 h at 37 °C in a 5% CO2 95% air mixture. […] The controls were incubated with RPMI 1640 medium (Gibco, Grand Island, NY, USA). The viability of the macrophages was determined by the MTT assay (Nacalai tesque, Kyoto, Japan). Briefly, 50 μL of MTT (2 mg/mL) was added to each well and, after 4 h of incubation at 37 °C, the reaction was stopped dissolving the formazan crystals with 100 μL/well of dimethyl sulfoxide (DMSO). The relative amount of formazan produced by viable macrophages was determined using a spectrophotometer at 570 nm. The percentage of viable cells was calculated according to the formula: OD treated culture–OD blank x 100/OD control–OD blank as was described previously. The CC50 was calculated for each compound as the concentration of compound that reduces cell growth by 50%.
as §1

[5] = system: intracellular amastigotes of L. (L.) amazonensis; assay: In vitro antiamastigote activity in infected THP1-derived macrophages; format: cell-based, Leishmania (Leishmania) amazonensis; conditions: for SI (selectivity index, ratio CC50 THP1/IC50 Leishmania): CC50 THP1/IC50 intracellular amastigotes; for SI (selectivity index, ratio CC50 THP1/IC50 Leishmania) / IC50: 48 h; for IC50: Leishmania amazonensis, Macrophage; for IC50 / Intracellular Amastigotes IC50: macrophages infected with L. (L.) amazonensis, 48 h of treatment, 34 °C
Experimental: THP1 cells (2 × 10^5/mL) were differentiated to macrophages with 10 ng/mL of phorbol myristate acetate and placed in Lab-Tek eight chamber slides for 24 h at 37 °C in a 5% CO2 95% air mixture. Adherent macrophages were infected with L. (L.) amazonensis at a ratio of four parasites per macrophage and incubated at 34 °C in a 5% CO2 95% air mixture during 24 h. After infection, the cells were washed with pre-warmed PBS to remove free parasites. A new medium with different concentrations of EGCG, EGC, GCG and GC (2.3 to 130 µg/mL) and Gl (2.5 to 80 µg Sb^v/mL) was added to each well. The positive controls were infected cells cultured under the presence of complete RPMI-1640 medium. The chambers were returned to the CO2 incubator for an additional 48 h at 34 °C, 5% CO2 [17]. The cells were stained with Diff Quik (Biopur S.R.L., Rosario, Argentina), and the results were expressed as the concentration of compound to inhibit the 50% of the growth (IC50) of the intracellular amastigotes.
as §1

[6] = system: intracellular amastigotes of L. (V.) braziliensis; set-up: method as in PMID 25144225; conditions: infected macrophage cultures incubated at 37 °C; cited from earlier work
[7] = system: intracellular amastigotes of L. (L.) amazonensis; set-up: method as in PMID 22735546; conditions: infected macrophage cultures incubated at 37 °C; cited from earlier work
[8] = system: L. (L.) donovani; set-up: method as in PMID 16569852; conditions: cited from earlier work
[9] = system: L. (V.) braziliensis; set-up: method as in PMID 24106750, PMID 22735546; conditions: EGCG oral treatment, BALB/c mice; cited from earlier work
[10] = intraperitoneal 120 mg Sb^v/kg/d

Molecule | Leishmanicidal activity / growth of promastigotes [2] | Leishmanicidal activity / growth of promastigotes [3] | CC50 at 48 h [4] | SI (selectivity index, ratio CC50 THP1/IC50 Leishmania) [5] | IC50 [5] | also measured
Meglumine antimoniate [reference compound] |  |  |  |  |  | Parasite burden inhibition [1, 10]: 85.1%; Lesion size [1, 10]: reduced the lesion size
Oc1cc(O)c2c(c1)O[C@H](c1cc(O)c(O)c(O)c1)[C@H](O)C2 [EGC, (−)-epigallocatechin] | leishmanicidal activity | leishmanicidal activity | 121 ± 20 µg/mL (≈ 394 µM) | ≥2.7 | < 59.6 µg/mL | SI (selectivity index, ratio CC50 THP1/IC50 Leishmania) ([5]; listed as (−)-epigallocatechin): > 1; Intracellular Amastigotes IC50 [5]: ≥44.3 µg/mL
O=C(O[C@@H]1Cc2c(O)cc(O)cc2O[C@H]1c1ccc(O)c(O)c1)c1cc(O)c(O)c(O)c1 [(−)-catechin gallate] | did not inhibit the growth | did not inhibit the growth |  |  |  | 
Oc1cc(O)c2c(c1)O[C@H](c1ccc(O)c(O)c1)[C@@H](O)C2 [(+)-catechin] | did not inhibit the growth | did not inhibit the growth |  |  |  | 
Oc1cc(O)c2c(c1)O[C@H](c1ccc(O)c(O)c1)[C@H](O)C2 [(−)-epicatechin] | did not inhibit the growth | did not inhibit the growth |  |  |  | 
O=C(O[C@@H]1Cc2c(O)cc(O)cc2O[C@@H]1c1cc(O)c(O)c(O)c1)c1cc(O)c(O)c(O)c1 [EGCG, (−)-Epigallocatechin gallate] | leishmanicidal activity | leishmanicidal activity | 88.9 ± 21.9 µg/mL (≈ 194 µM) | 1.5 | < 59.6 µg/mL | IC50 against intracellular amastigotes [6]: 1.57 µg/mL (≈ 3.43 µM); IC50 against intracellular amastigotes [7]: 0.74 µg/mL (≈ 1.61 µM); Parasite burden inhibition ([1]; topical 15% EGCG in USP hydrophilic ointment, 20 mg/lesion): 80.4%; Lesion size ([1]; topical 15% EGCG): significant reduction of the lesion size; IC50 against L. (L.) donovani [8]: 19.1 µg/mL (≈ 41.7 µM); Parasite burden inhibition [9]: 92.1%; SI (selectivity index, ratio CC50 THP1/IC50 Leishmania) ([5]; listed as (−)-Epigallocatechin gallate): > 1; Intracellular Amastigotes IC50 [5]: 59.6 ± 9.3 µg/mL
O=C(O[C@@H]1Cc2c(O)cc(O)cc2O[C@H]1c1cc(O)c(O)c(O)c1)c1cc(O)c(O)c(O)c1 [GCG, (−)-gallocatechin gallate] | leishmanicidal activity | leishmanicidal activity | 94.9 ± 11.8 µg/mL (≈ 207 µM) | 1.4 | 67.5 ± 9.5 µg/mL (≈ 147 µM) | IC50 against L. (L.) donovani [8]: 8.9 µg/mL (≈ 19.4 µM)
Oc1cc(O)c2c(c1)O[C@@H](c1cc(O)c(O)c(O)c1)[C@H](O)C2 [GC, (−)-gallocatechin] | leishmanicidal activity | leishmanicidal activity | 115 ± 37.1 µg/mL (≈ 376 µM) | 1.2 | 93.5 ± 5 µg/mL (≈ 305 µM) | 
